# Measured values published in US20200008426A1, “ACTIVE COMPOUND COMBINATIONS” (BAYER AKTIENGESELLSCHAFT, priority 2017, published 2020).
# Experiment: LogP by HPLC on reversed phase columns (EEC directive 79/831 Annex V.A8)
# Conditions: Table 1, formula (I); LC-UV, acidic range, 0.1% formic acid in water and acetonitrile
# Procedure: Measurement of LogP values was performed according to EEC directive 79/831 Annex V.A8 by HPLC (High Performance Liquid Chromatography) on reversed phase columns with the following methods:
# Lambda-max-values were determined using UV-spectra from 200 nm to 400 nm and the peak values of the chromatographic signals.
row,Structure (SMILES),LogP [a]
1,OC(Cn1cncn1)c1ccc(Oc2ccc(Cl)cc2)nc1OC(F)(F)F (stereo not drawn) [I.26],2.92^[a]
2,OC(Cn1cncn1)c1ccc(Oc2ccc(Br)cc2)nc1C(F)(F)F (stereo not drawn) [I.40],2.82^[a]
3,CC(O)(Cn1cncn1)c1ccc(Oc2ccc(Cl)cc2)nc1OC(F)(F)F (stereo not drawn) [I.33],3.29^[a]
4,"OC(Cn1cncn1)c1cnc(Oc2ccc(C(F)(F)F)cc2)cc1C(F)(F)F (single isomer, unassigned) [I.92]",2.86^[a]
5,CCCCC(O)(Cn1cncn1)c1ccc(Oc2ccc(Cl)cc2)nc1C(F)(F)F (racemic) [I.98],3.87^[a]
6,CC(C)c1ccc(Oc2ccc(C(C)(O)Cn3cncn3)c(C(F)(F)F)n2)cc1 (stereo not drawn) [I.75],3.35^[a]
7,CC(O)(Cn1cncn1)c1ccc(Oc2ccc(Cl)cc2)nc1F (stereo not drawn) [I.42],2.46^[a]
8,OC(Cn1cncn1)c1ncc(Oc2ccccc2)cc1Cl (stereo not drawn) [I.22],2.01^[a]
9,OC(Cn1cncn1)c1ccc(Oc2ccc(Cl)cc2)nc1Cl (stereo not drawn) [I.14],2.42^[a]
10,OC(Cn1cncn1)(c1ccc(Oc2ccc(C(F)(F)F)cc2)nc1C(F)(F)F)C1CC1 (stereo not drawn) [I.87],3.57^[a]
11,CC(O)(Cn1cncn1)c1cnc(Oc2ccc(C(F)(F)F)cc2)cc1Cl (stereo not drawn) [I.78],2.88^[a]
12,CC(O)(Cn1cncn1)c1cnc(Oc2ccccc2)cc1Cl (stereo not drawn) [I.05],2.10
13,Cc1cc(Cl)ccc1Oc1ccc(C(C)(O)Cn2cncn2)c(Cl)n1 (stereo not drawn) [I.28],2.94^[a]
14,OC(Cn1cncn1)c1ccc(Oc2ccc(Cl)cc2)nc1F (stereo not drawn) [I.41],2.23^[a]
15,OC(Cn1cncn1)c1ccc(Oc2ccc(C(F)F)cc2)nc1C(F)(F)F (stereo not drawn) [I.74],2.49^[a]
16,"CC(O)(Cn1cncn1)c1ccc(Oc2ccc(Br)cc2)nc1C(F)(F)F (single isomer, unassigned) [I.101]",2.94^[a]
17,CCC(O)(Cn1cncn1)c1ccc(Oc2ccc(Cl)cc2)nc1C(F)(F)F (racemic) [I.103],3.19^[a]
18,CC(O)(Cn1cncn1)c1cnc(Oc2ccc(Br)cc2)cc1C(F)(F)F (stereo not drawn) [I.49],2.96^[a]
19,OC(Cn1cncn1)c1ccc(Oc2ccc(OC(F)(F)F)c(Cl)c2)nc1Cl (stereo not drawn) [I.11],3.11^[a]
20,"OC(Cn1cncn1)(c1ccc(Oc2ccc(Br)cc2)nc1C(F)(F)F)C1CC1 (single isomer, unassigned) [I.84]",3.41 ^[a]
21,OC(Cn1cncn1)c1cnc(Oc2ccccc2)cc1Cl (stereo not drawn) [I.21],1.92^[a]

row,Structure (SMILES),LogP [a]
1,"CC(O)(Cn1cncn1)c1ccc(Oc2ccc(Br)cc2)nc1C(F)(F)F (single isomer, unassigned) [I.102]",2.94^[a]
2,CC(O)(Cn1cncn1)c1ccc(Oc2ccc(Cl)cc2F)nc1C(F)(F)F (stereo not drawn) [I.66],2.80^[a]
3,OC(Cn1cncn1)c1ccc(Oc2ccc(Br)cc2)nc1C(F)F (stereo not drawn) [I.73],2.50^[a]
4,OC(Cn1cncn1)c1ccc(Oc2cc(F)c(F)c(F)c2)nc1Cl (stereo not drawn) [I.20],1.65^[a]
5,OC(Cn1cncn1)c1ccc(Oc2ccc(C(F)(F)F)cc2)nc1C(F)(F)F (stereo not drawn) [I.61],2.84^[a]
6,OC(Cn1cncn1)c1ccc(Oc2ccc(S(F)(F)(F)(F)F)cc2)nc1Cl (stereo not drawn) [I.34],2.90^[a]
7,OC(Cn1cncn1)c1cnc(Oc2ccc(Cl)cc2)cc1Cl (stereo not drawn) [I.68],2.48^[a]
8,"OC(Cn1cncn1)c1cnc(Oc2ccc(S(F)(F)(F)(F)F)cc2)cc1C(F)(F)F (single isomer, unassigned) [I.83]",3.11^[a]
9,CC(O)(Cn1cncn1)c1ccc(Oc2ccc(C(F)(F)F)cc2)nc1C(F)(F)F (stereo not drawn) [I.65],3.04^[a]
10,OC(Cn1cncn1)c1ccc(Oc2ccc(OC(F)(F)F)cc2)nc1C(F)(F)F (stereo not drawn) [I.79],2.89^[a]
11,OC(Cn1cncn1)c1ccc(Oc2ccc(F)cc2F)nc1Cl (stereo not drawn) [I.18],2.18^[a]
12,CC(O)(Cn1cncn1)c1cnc(Oc2ccc(S(F)(F)(F)(F)F)cc2)cc1C(F)(F)F (stereo not drawn) [I.37],3.33^[a]
13,OC(Cn1cncn1)c1ccc(Oc2ccc(S(F)(F)(F)(F)F)cc2)nc1C(F)(F)F (stereo not drawn) [I.60],3.08^[a]
14,OC(Cn1cncn1)(c1ccc(Oc2ccc(Cl)cc2)nc1C(F)(F)F)C1CC1 (stereo not drawn) [I.71],3.35^[a]
15,OC(Cn1cncn1)c1cnc(Oc2ccc(S(F)(F)(F)(F)F)cc2)cc1C(F)(F)F (racemic) [I.36],3.15^[a]
16,"CC(O)(Cn1cncn1)c1ccc(Oc2ccc(Cl)cc2)nc1Cl (single isomer, unassigned) [I.52]",2.62^[a]
17,CC(O)c1ccc(Oc2ccc(C(O)Cn3cncn3)c(Cl)n2)cc1 (stereo not drawn) [I.24],1.48^[a]
18,OC(Cn1cncn1)c1ccc(Oc2ccc(OC(F)(F)F)cc2)nc1Cl (stereo not drawn) [I.12],2.73^[a]
19,OC(Cn1cncn1)c1ccc(Oc2ccccc2)nc1Cl (stereo not drawn) [I.13],1.98^[a]
20,"OC(Cn1cncn1)c1cnc(Oc2ccc(S(F)(F)(F)(F)F)cc2)cc1C(F)(F)F (single isomer, unassigned) [I.86]",3.11^[a]
21,OC(Cn1cncn1)c1ccc(Oc2ccc(Cl)cc2)nc1C(F)F (stereo not drawn) [I.25],2.44^[a]

row,Structure (SMILES),LogP [a]
1,CC(O)(Cn1cncn1)c1ccc(Oc2ccc(S(F)(F)(F)(F)F)cc2)nc1C(F)(F)F (stereo not drawn) [I.62],3.25^[a]
2,COc1ccc(Oc2ccc(C(C)(O)Cn3cncn3)c(Cl)n2)c(Cl)c1 (stereo not drawn) [I.31],2.56^[a]
3,CC(O)(Cn1cncn1)c1ncc(Oc2ccccc2)cc1Cl (stereo not drawn) [I.06],2.47
4,OC(Cn1cncn1)c1cnc(Oc2ccc(C(F)F)cc2)cc1C(F)(F)F (stereo not drawn) [I.55],2.55^[a]
5,OC(Cn1cncn1)c1ccc(Oc2ccc(Cl)c(Cl)c2)nc1Cl (stereo not drawn) [I.10],2.80^[a]
6,OC(Cn1cncn1)c1cnc(Oc2ccc(C(F)(F)F)cc2)cc1C(F)(F)F (racemic) [I.47],2.84^[a]
7,"CC(O)(Cn1cncn1)c1cnc(Oc2ccc(Cl)cc2)cc1C(F)(F)F (single isomer, unassigned) [I.45]",2.84^[a]
8,OC(Cn1cncn1)(c1ccc(Oc2ccc(Cl)cc2)nc1C(F)(F)F)C1CC1 (stereo not drawn) [I.80],3.32^[a]
9,"CC(O)(Cn1cncn1)c1cnc(Oc2ccc(Cl)cc2)cc1Cl (single isomer, unassigned) [I.54]",2.53^[a]
10,Cc1ccc(Oc2ccc(C(O)Cn3cncn3)c(Cl)n2)cc1Cl (stereo not drawn) [I.16],2.73^[a]
11,CC(O)(Cn1cncn1)c1ccc(Oc2ccc(F)cc2)nc1Cl (stereo not drawn) [I.27],2.28^[a]
12,OC(Cn1cncn1)c1cnc(Oc2ccc(Br)cc2)cc1C(F)F (stereo not drawn) [I.63],2.59^[a]
13,CC(O)(Cn1cncn1)c1cnc(Oc2ccc(OC(F)(F)F)cc2)cc1C(F)(F)F (stereo not drawn) [I.44],3.23^[a]
14,C=CC(O)(Cn1cncn1)c1cnc(Oc2ccc(C(F)(F)F)cc2)cc1C(F)(F)F (stereo not drawn) [I.69],3.33^[a]
15,"CC(O)(Cn1cncn1)c1cnc(Oc2ccc(Cl)cc2)cc1Cl (single isomer, unassigned) [I.53]",2.53^[a]
16,OC(Cn1cncn1)c1cnc(Oc2ccc(C(F)(F)F)cc2)cc1Cl (stereo not drawn) [I.88],2.64^[a]
17,CC(O)(Cn1cncn1)c1ccc(Oc2ccc(Cl)cc2F)nc1C(F)(F)F (stereo not drawn) [I.89],3.15^[a]
18,CC(O)(Cn1cncn1)c1ccc(Oc2ccccc2)nc1Cl (stereo not drawn) [I.07],2.14
19,"CC(O)(Cn1cncn1)c1ccc(Oc2ccc(Cl)cc2)nc1Cl (single isomer, unassigned) [I.51]",2.62^[a]
20,OC(Cn1cncn1)c1ccc(Oc2ccc(Cl)cc2F)nc1C(F)(F)F (stereo not drawn) [I.90],2.88^[a]

# Same assay, conditions: Table 1, formula (I); LC-UV, neutral range, 0.001 molar ammonium acetate in water and acetonitrile
row,Structure (SMILES),LogP [b]
1,CC(O)(Cn1cncn1)c1cnc(Oc2ccccc2)cc1Cl (stereo not drawn) [I.05],2.06
2,CC(O)(Cn1cncn1)c1ncc(Oc2ccccc2)cc1Cl (stereo not drawn) [I.06],2.43
3,CC(O)(Cn1cncn1)c1ccc(Oc2ccccc2)nc1Cl (stereo not drawn) [I.07],2.09

# Same assay, conditions: Table 2, formula (V); LC-UV, acidic range, 0.1% formic acid in water and acetonitrile
row,Structure (SMILES),LogP [a]
1,CC(=O)c1ccc(Oc2ccc(F)cc2)nc1Cl [V.12],3.11^[a]
2,CC(=O)c1cnc(Oc2ccc(Cl)cc2)cc1C(C)=O [V.19],3.11^[a]
3,CC(=O)c1ccc(Oc2c(F)cc(Cl)cc2F)nc1C(F)(F)F [V.31],4.06^[a]
4,CC(=O)c1cnc(Oc2ccc(C(F)F)cc2)cc1C(F)(F)F [V.04],3.62^[a]
5,O=Cc1ccc(Oc2ccc(C(=O)C3CC3)c(C(F)(F)F)n2)cc1 [V.42],3.21^[a]
6,CC(=O)c1ccc(Oc2ccc(Br)cc2)nc1C(F)(F)F [V.20],3.85^[a]
7,CC(=O)c1cnc(Oc2ccc(C(F)(F)F)cc2)cc1C(F)(F)F [V.25],4.04^[a]
8,CC(=O)c1cnc(Oc2ccc(Cl)cc2)cc1Cl [V.22],3.51^[a]
9,CC(=O)c1cnc(Oc2ccc(Cl)cc2F)cc1C(F)(F)F [V.07],4.09^[a]
10,O=C(c1ccc(Oc2ccc(C(F)(F)F)cc2)nc1C(F)(F)F)C1CC1 [V.39],4.37^[a]
11,CC(=O)c1cnc(Oc2ccc(S(F)(F)(F)(F)F)cc2)cc1C(F)(F)F [V.03],4.32^[a]
12,CC(=O)c1cnc(Oc2ccccc2)cc1Cl [V.08],2.94
13,CC(=O)c1ccc(Oc2ccc(Cl)c(Cl)c2)nc1Cl [V.11],4.10^[a]
14,CC(=O)c1cnc(Oc2ccc(Cl)cc2)cc1Cl [V.09],3.52
15,CC(=O)c1cnc(Oc2ccc(OC(F)(F)F)cc2)cc1C(F)(F)F [V.15],4.20^[a]
16,CC(=O)c1ccc(Oc2ccc(OC(F)(F)F)cc2)nc1Cl [V.28],3.89^[a]
17,CC(=O)c1ccc(Oc2ccc(C(F)F)cc2)nc1Cl [V.14],3.15^[a]
18,CC(=O)c1ccc(Oc2ccc(Cl)cc2)nc1Cl [V.10],3.47
19,CC(=O)c1ccc(Oc2ccc(S(F)(F)(F)(F)F)cc2)nc1Cl [V.30],3.99^[a]
20,CC(=O)c1ccc(Oc2ccc(Cl)cc2)nc1Cl [V.26],3.45^[a]
21,CC(=O)c1ccc(Oc2ccc(Cl)cc2)nc1OC(F)(F)F [V.06],4.37^[a]

# Same assay, conditions: Table 2, formula (V); LC-UV, neutral range, 0.001 molar ammonium acetate in water and acetonitrile
row,Structure (SMILES),LogP [b]
1,CC(=O)c1cnc(Oc2ccccc2)cc1Cl [V.08],2.86
2,CC(=O)c1cnc(Oc2ccc(Cl)cc2)cc1Cl [V.09],3.42
3,CC(=O)c1ccc(Oc2ccc(Cl)cc2)nc1Cl [V.10],3.36

# Same assay, conditions: Table 5, formula (IX); LC-UV, acidic range, 0.1% formic acid in water and acetonitrile
row,Structure (SMILES),LogP [a]
1,FC(F)(F)c1nc(Oc2ccc(S(F)(F)(F)(F)F)cc2)ccc1C1(C2CC2)CO1 (stereo not drawn) [IX.09],5.22^[a]
